# Laboratory results taken from PMC13252604, “First Generation Proteolysis Targeting Chimeras (PROTACs) for the Treatment of Progeria” (Advanced Science, 2026).
# Key:
# [1] = system: overall protein abundance; assay: Global proteomic analysis; type: cell-based; conditions: 5 µM compound vs vehicle, three independent samples each
# From the text: (§1) (A) Input IP .LM123L T-!=> V,!=>
# (§2) MW Veh Cpd 2 Cpd 2 Veh !!!!!"#$$#B -45665 T4--8 -4;?,;
# (§3) Progerin !!!!!E#)*+,- ,V4:-Ise::::: :etpoooomX,?4?V:enst9mmqo,848; !?#$B?CDEFCBG+I-+G.BLG+ […]
# (§4) !!!!!*+,- 84;66L<-,VI9e::::::esnnsmqmXV4-;VL<-,?:estm9XpoX?4T-?L<-,8 FFFFF0BNNB$ :em9Xn […]
# (§5) IgG heavy chain Iqep:m:p ne:qmppo:m :esmpqtmpn FFFFFSB#T89:I9em:m […]
# (§6) 50- Iqe9mt:: :eoX9ppnnm :eoqpq9s9p X9YF8=F>.-B2?E+FE??+E?@BBCA
# (§7) FFFFF0BNNB$ rrrFNBF:eqoqs
# (§8) Cpd 2 Veh FFFFFSB#T89:rrr […]
# (§9) Vehicle .LM123L T-!=>(%C" V,!=> […]
# (§10) 50- !!!!!C#' -4TT8VLamin C -4T:T; (%$$-4-:?5T '()*+
# (§11) !!!!!E#)*+,- ,V4:-β-Actin ,?4?V ,848; D(%
# (§12) 37- !!!!!*+,- 84;66L<-,V V4-;VL<-,? ?4T-?L<-,8 ,-)*+ […]
# (§13) Abundance Ratio (log2): Ve h / Cpd 2
# (§14) Supporting Figure S2. Ternary complex formation, progerin engagement and global selectivity of compound 2. (A) Progeroid […]/G609G fibroblasts treated with vehicle (0.1% DMSO) or compound 2 (5 µM) were subjected to immunoprecipitation with an anti-CRBN antibody and then immunoblotted with an anti-progerin antibody. Bar graph represents mean±sem of 2 independent experiments. (B) Representative progerin immunoblotting of the soluble fraction of LmnaG609G/G609G cell homogenates treated with […]
# indicated temperature. (C) Thermal denaturation curves of progerin in the presence of vehicle (black) or compound 2 at 10 µM (red, DTm=0.7±0.1 °C) or 25 µM (blue, […]
# of compound 2 (IC50=7±1 µM). […]
# [2] = target: T1, ternary complex between progerin, compound 2 and CRBN (Mus musculus, UniProt P48678+Q8C7D2, DEL608-657); assay: Co-immunoprecipitation of ternary complex (anti-CRBN IP, anti-progerin blot); type: binding; conditions: 5 µM, 6 h, Lmna^G609G/G609G fibroblasts
# T1 construct: endogenous in cells; host or cells: Lmna G609G/G609G mouse fibroblasts
# T1 sequence (P48678 with tags, fused parts or gaps DEL608-657 limits assumed): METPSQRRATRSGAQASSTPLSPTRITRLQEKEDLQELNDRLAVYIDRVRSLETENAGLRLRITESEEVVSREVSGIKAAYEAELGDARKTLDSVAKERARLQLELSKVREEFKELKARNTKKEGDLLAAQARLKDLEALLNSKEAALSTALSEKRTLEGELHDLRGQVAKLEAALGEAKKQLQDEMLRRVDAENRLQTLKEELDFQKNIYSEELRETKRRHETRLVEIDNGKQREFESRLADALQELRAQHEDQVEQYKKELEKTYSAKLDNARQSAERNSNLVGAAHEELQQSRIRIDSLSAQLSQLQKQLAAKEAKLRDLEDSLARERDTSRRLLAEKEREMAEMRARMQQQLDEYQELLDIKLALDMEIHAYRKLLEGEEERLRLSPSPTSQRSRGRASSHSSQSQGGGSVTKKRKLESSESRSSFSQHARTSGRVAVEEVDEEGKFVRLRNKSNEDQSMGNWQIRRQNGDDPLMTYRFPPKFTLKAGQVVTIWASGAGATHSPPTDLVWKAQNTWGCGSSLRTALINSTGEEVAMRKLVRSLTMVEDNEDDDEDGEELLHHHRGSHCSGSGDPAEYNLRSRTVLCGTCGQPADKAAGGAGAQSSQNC
# T1 sequence (Q8C7D2 whole entry, stated change not applied): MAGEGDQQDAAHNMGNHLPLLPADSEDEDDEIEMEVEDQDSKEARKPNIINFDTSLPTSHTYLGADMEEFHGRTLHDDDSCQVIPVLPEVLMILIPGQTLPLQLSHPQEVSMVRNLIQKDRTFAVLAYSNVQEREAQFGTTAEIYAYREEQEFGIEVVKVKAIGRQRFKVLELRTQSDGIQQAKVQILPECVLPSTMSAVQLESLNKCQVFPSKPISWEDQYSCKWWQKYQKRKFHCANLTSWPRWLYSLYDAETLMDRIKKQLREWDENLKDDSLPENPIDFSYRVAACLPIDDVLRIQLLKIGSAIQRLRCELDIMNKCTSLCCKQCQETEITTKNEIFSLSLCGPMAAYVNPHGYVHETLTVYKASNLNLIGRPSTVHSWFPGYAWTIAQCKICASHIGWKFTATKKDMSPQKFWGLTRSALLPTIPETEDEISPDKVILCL
# T1 sequence (Q3U1J4 whole entry partner): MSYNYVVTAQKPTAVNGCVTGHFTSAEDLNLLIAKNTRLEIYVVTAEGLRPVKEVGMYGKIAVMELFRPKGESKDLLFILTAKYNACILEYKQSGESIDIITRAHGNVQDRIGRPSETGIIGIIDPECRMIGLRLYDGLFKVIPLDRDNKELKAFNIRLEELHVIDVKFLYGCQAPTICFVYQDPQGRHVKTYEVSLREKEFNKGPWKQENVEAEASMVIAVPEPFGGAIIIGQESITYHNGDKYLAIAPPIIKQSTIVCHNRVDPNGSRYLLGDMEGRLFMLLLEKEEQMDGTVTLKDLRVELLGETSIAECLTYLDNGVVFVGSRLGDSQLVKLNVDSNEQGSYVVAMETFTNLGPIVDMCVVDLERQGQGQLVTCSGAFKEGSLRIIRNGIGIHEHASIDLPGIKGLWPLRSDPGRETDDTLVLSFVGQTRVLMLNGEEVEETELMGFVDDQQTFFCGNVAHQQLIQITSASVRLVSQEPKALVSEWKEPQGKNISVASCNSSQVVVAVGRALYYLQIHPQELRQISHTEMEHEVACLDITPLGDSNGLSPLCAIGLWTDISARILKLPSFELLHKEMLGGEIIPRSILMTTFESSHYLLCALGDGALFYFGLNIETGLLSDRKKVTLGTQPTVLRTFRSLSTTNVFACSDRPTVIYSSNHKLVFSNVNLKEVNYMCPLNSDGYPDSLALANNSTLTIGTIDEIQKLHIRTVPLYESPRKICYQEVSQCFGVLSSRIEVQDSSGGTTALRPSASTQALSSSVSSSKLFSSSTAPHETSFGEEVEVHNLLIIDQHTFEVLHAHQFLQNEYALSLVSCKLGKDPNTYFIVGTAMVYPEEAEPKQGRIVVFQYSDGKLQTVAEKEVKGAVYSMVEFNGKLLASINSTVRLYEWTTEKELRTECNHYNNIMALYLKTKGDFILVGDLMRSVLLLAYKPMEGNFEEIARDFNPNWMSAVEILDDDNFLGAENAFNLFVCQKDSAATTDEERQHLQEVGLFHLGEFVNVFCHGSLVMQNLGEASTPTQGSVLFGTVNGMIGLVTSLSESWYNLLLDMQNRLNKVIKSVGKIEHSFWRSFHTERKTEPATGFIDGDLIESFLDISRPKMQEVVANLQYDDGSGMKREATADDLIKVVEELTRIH
# From the text: as §1, §2, §3, §4, §5, §6, §7, §8, §9, §10, §11, §12, §13, §14
# Cells were harvested by trypsin, centrifuged and washed with PBS. […] The mixture was then allowed to incubate for 30min at 37 °C in the dark and samples were finally analysed by FACScalibur (Becton Dickinson) flow cytometer […]
structure (smiles),measurement,setting,value
CC1(C)Oc2cc3oc(=O)ccc3cc2C[C@@H]1OC(=O)CCCCCNc1cccc2c1C(=O)N(C1CCC(=O)NC1=O)C2=O (some centres unmarked) [compound 2],alterations in overall protein abundance (global proteomics),[1],did not identify significant alterations in overall protein abundance
same,formation of ternary complex with progerin and CRBN by immunoprecipitation,[2],confirmed the formation of the ternary complex
